The supplement of paper PMC10307832

Legend:
Test in all cases: relative viability (nuclei count vs DMSO), 5 days (fraction); higher = more cells survive
Alisertib + Trametinib = compound: COc1cc(Nc2ncc3c(n2)-c2ccc(Cl)cc2C(c2c(F)cccc2OC)=NC3)ccc1C(=O)O [Alisertib] + CC(=O)Nc1cccc(-n2c(=O)n(C3CC3)c(=O)c3c(Nc4ccc(I)cc4F)n(C)c(=O)c(C)c32)c1 [Trametinib] (partner 0.02 µM)
Summary of the method: (§1)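 Lung cancer cell lines were pin-tool dosed in 1536-well plates on the day after seeding, with either a lone drug or a fixed anchor-drug dose plus five library-drug doses (not always all listed) in √10 steps. Nuclei were counted on 4× images after 5 days. Relative viability is the ratio of treated-well to vehicle-well nuclei counts, with each value a median of duplicate plates.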

Alisertib + Bortezomib = compound: COc1cc(Nc2ncc3c(n2)-c2ccc(Cl)cc2C(c2c(F)cccc2OC)=NC3)ccc1C(=O)O [Alisertib] + CC(C)C[C@H](NC(=O)[C@H](Cc1ccccc1)NC(=O)c1cnccn1)B(O)O [Bortezomib] (partner 0.002 µM)
Summary of the method: as §1

Alisertib + Pictilisib = compound: COc1cc(Nc2ncc3c(n2)-c2ccc(Cl)cc2C(c2c(F)cccc2OC)=NC3)ccc1C(=O)O [Alisertib] + CS(=O)(=O)N1CCN(Cc2cc3nc(-c4cccc5[nH]ncc45)nc(N4CCOCC4)c3s2)CC1 [Pictilisib] (partner 1 µM)
Summary of the method: as §1

Alisertib + Olaparib = compound: COc1cc(Nc2ncc3c(n2)-c2ccc(Cl)cc2C(c2c(F)cccc2OC)=NC3)ccc1C(=O)O [Alisertib] + O=C(c1cc(Cc2n[nH]c(=O)c3ccccc23)ccc1F)N1CCN(C(=O)C2CC2)CC1 [Olaparib] (partner 8 µM)
Summary of the method: as §1

Cell Line | relative viability (Alisertib + Trametinib; first compound 0.005 µM) | relative viability (Alisertib + Trametinib; first compound 0.01581 µM) | relative viability (Alisertib + Trametinib; first compound 0.05 µM) | relative viability (Alisertib + Trametinib; first compound 0.1581 µM) | relative viability (Alisertib + Trametinib; first compound 0.5 µM) | relative viability (Alisertib + Bortezomib; first compound 0.005 µM) | relative viability (Alisertib + Bortezomib; first compound 0.01581 µM) | relative viability (Alisertib + Bortezomib; first compound 0.05 µM) | relative viability (Alisertib + Bortezomib; first compound 0.1581 µM) | relative viability (Alisertib + Bortezomib; first compound 0.5 µM) | relative viability (Alisertib + Pictilisib; first compound 0.005 µM) | relative viability (Alisertib + Pictilisib; first compound 0.01581 µM) | relative viability (Alisertib + Pictilisib; first compound 0.05 µM) | relative viability (Alisertib + Pictilisib; first compound 0.1581 µM) | relative viability (Alisertib + Pictilisib; first compound 0.5 µM) | relative viability (Alisertib + Olaparib; first compound 0.005 µM) | relative viability (Alisertib + Olaparib; first compound 0.01581 µM) | relative viability (Alisertib + Olaparib; first compound 0.05 µM) | relative viability (Alisertib + Olaparib; first compound 0.1581 µM) | relative viability (Alisertib + Olaparib; first compound 0.5 µM)
LCLC-97TM1 | 0.202 | 0.201 | 0.124 | 0.126 | 0.0987 | 0.51 | 0.725 | 0.108 | 0.0791 | 0.0549 | 0.223 | 0.167 | 0.135 | 0.108 | 0.0964 | 0.332 | 0.306 | 0.102 | 0.0999 | 0.0824
LCLC-103H | 0.669 | 0.69 | 0.345 | 0.359 | 0.437 | 1.19 | 1.01 | 1.09 | 0.262 | 0.3 | 0.588 | 0.687 | 0.573 | 0.211 | 0.206 | 0.598 | 0.709 | 0.356 | 0.357 | 0.353
LOU-NH91 | 0.783 | 0.751 | 0.663 | 0.513 | 0.425 | 0.509 | 0.427 | 0.388 | 0.364 | 0.405 | 0.508 | 0.487 | 0.448 | 0.366 | 0.392 | 0.89 | 0.871 | 0.63 | 0.464 | 0.399
LU99A | 0.507 | 0.473 | 0.181 | 0.212 | 0.195 | 1.15 | 0.872 | 0.396 | 0.24 | 0.182 | 0.404 | 0.341 | 0.252 | 0.159 | 0.151 | 0.253 | 0.223 | 0.189 | 0.151 | 0.133
LXF-289 | 0.586 | 0.628 | 0.265 | 0.192 | 0.152 | 0.823 | 0.608 | 0.323 | 0.108 | 0.128 | 0.701 | 0.565 | 0.576 | 0.103 | 0.0904 | 0.757 | 0.593 | 0.113 | 0.101 | 0.131
NCI-H23 | 0.318 | 0.222 | 0.199 | 0.169 | 0.148 | 0.875 | 0.39 | 0.272 | 0.158 | 0.164 | 0.422 | 0.302 | 0.18 | 0.185 | 0.147 | 0.287 | 0.167 | 0.146 | 0.141 | 0.155
NCI-H322M | 0.456 | 0.495 | 0.403 | 0.472 | 0.381 | 1.15 | 1.11 | 1.25 | 0.471 | 0.46 | 0.497 | 0.477 | 0.451 | 0.321 | 0.311 | 0.77 | 0.686 | 0.565 | 0.459 | 0.488
NCI-H441 | 0.378 | 0.341 | 0.16 | 0.168 | 0.141 | 0.715 | 0.394 | 0.184 | 0.17 | 0.155 | 0.402 | 0.229 | 0.118 | 0.139 | 0.123 | 0.487 | 0.471 | 0.139 | 0.173 | 0.172
NCI-H460 | 0.102 | 0.147 | 0.0441 | 0.0212 | 0.0263 | 1.07 | 0.9 | 0.428 | 0.0287 | 0.0157 | 0.364 | 0.428 | 0.327 | 0.0613 | 0.0689 | 0.371 | 0.387 | 0.0754 | 0.0677 | 0.0562
NCI-H520 | 0.499 | 0.429 | 0.35 | 0.232 | 0.213 | 0.463 | 0.377 | 0.199 | 0.173 | 0.186 | 0.23 | 0.203 | 0.209 | 0.179 | 0.187 | 0.317 | 0.244 | 0.217 | 0.18 | 0.249
NCI-H596 | 0.816 | 0.787 | 0.776 | 0.542 | 0.327 |  | 0.862 | 1.83 | 0.854 | 0.43 |  | 0.412 | 0.433 | 0.214 | 0.242 | 0.779 | 0.773 | 0.627 | 0.522 | 0.254
NCI-H647 | 0.358 | 0.493 | 0.228 | 0.159 | 0.113 | 0.598 | 0.572 | 0.305 | 0.133 | 0.086 | 0.42 | 0.449 | 0.274 | 0.137 | 0.0788 | 0.367 | 0.278 | 0.086 | 0.0609 | 0.0531
NCI-H650 | 0.829 | 0.684 | 0.44 | 0.229 | 0.208 | 0.568 | 0.619 | 0.25 | 0.265 | 0.22 | 0.732 | 0.825 | 0.29 | 0.267 | 0.174 | 0.366 | 0.299 | 0.171 | 0.164 | 0.154
NCI-H661 | 0.514 | 0.547 | 0.442 | 0.341 | 0.338 | 0.845 | 0.557 | 0.521 | 0.304 | 0.297 | 0.378 | 0.379 | 0.229 | 0.245 | 0.242 | 0.735 | 0.562 | 0.397 | 0.355 | 0.357
NCI-H727 | 0.308 | 0.392 | 0.355 | 0.341 | 0.353 | 0.796 | 0.795 | 0.46 | 0.329 | 0.301 | 0.273 | 0.333 | 0.236 | 0.236 | 0.225 | 0.679 | 0.624 | 0.556 | 0.518 | 0.465
